In patent US10344025B2, “GLS1 inhibitors for treating disease” (Board of Regents, The University of Texas System, priority 2014, dated 2019):

How the values were obtained:
[1] = test system: A549 cells; experiment: Proliferation Assay (A549 viability, Cell Titer Fluor, 72 hours); type: cell-based; settings: Homo sapiens, A549, 72 h
Summary of the method: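 A549 cells seeded at 1000 cells/well, rested 24 h, then exposed to compound in 0.5% DMSO for 72 h at 37 °C. Viability read by Cell Titer Fluor fluorescence; IC50 from four-parameter logistic fit.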

[2] = target: purified recombinant human GAC (GLS1) (Homo sapiens (Human), UniProt O94925); experiment: GLS1 Enzymatic Activity Assay (dual-coupled enzymatic assay, resorufin/Amplex UltraRed readout); type: biochemical;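 also: glutamate from GAC coupled via glutamate oxidase and peroxidase to resorufin, read as fluorescence (ex 530, em 590 nm) kinetically or at 20 min, four-parameter logistic IC50 fit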
purified recombinant human GAC (GLS1), sequence (O94925 other isoform, or with tags, fused parts or gaps): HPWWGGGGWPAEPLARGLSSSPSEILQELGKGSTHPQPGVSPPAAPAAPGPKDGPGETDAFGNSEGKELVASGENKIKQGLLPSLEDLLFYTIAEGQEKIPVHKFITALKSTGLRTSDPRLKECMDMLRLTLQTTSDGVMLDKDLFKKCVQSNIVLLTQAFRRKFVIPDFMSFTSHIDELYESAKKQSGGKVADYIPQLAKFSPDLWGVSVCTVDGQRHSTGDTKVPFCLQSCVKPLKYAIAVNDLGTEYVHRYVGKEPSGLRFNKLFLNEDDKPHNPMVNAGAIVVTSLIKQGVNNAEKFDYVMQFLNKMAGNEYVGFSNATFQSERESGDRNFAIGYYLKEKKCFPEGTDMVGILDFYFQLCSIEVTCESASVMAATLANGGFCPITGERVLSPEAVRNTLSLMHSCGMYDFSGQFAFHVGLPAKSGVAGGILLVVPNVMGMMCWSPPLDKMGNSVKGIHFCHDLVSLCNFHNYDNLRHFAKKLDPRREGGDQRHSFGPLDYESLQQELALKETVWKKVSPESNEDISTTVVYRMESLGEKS

| EC50 [1] [nM] | IC50 [2] [nM] | SMILES |
| --- | --- | --- |
| 100 to 500 | 100 to 500 | CNC(=O)c1cn(CC(F)CCc2nnc(C(=O)NCc3cncc(C(F)(F)F)c3)s2)nn1 (centres unmarked) [Example 501, 5-{3-fluoro-4-[4-(methylcarbamoyl)-1H-1,2,3-triazol-1-yl]butyl}-N-{[- (trifluoromethyl)pyridin-3-yl]methyl}-1,3,4-thiadiazole-2-carboxamide] |
| 100 to 500 | 100 to 500 | O=C(NCc1cc(C(F)(F)F)ccn1)c1cn(CC(F)CCn2cc(C(=O)N[C@H](CO)c3ccccc3)nn2)nn1 (stereo partly drawn) [Example 130, 1-[2-fluoro-4-(4-{[(1S)-2-hydroxy-1-phenylethyl]carbamoyl}-1H-1,2,3-triazol-1-yl)butyl]-N-1{[4-(trifluoromethyl)pyridin-2-yl]methyl}-1H-1,2,3-triazole-4-carboxamide] |
| 100 to 500 | < 100 | O=C(Cc1cc(OC(F)(F)F)ccc1F)Nc1ccc(CCCCn2cc(C(=O)NCC3CCO3)nn2)nn1 (centres unmarked) [Example 582, 1-(4-(6-(2-(2-fluoro-5-(trifluoromethoxy)phenyl)acetamido)pyridazin-3-yl)butyl)-N-(oxetan-2-ylmethyl)-1H-1,2,3-triazole-4-carboxamide] |
| < 100 | < 100 | CC(C)CNC(=O)c1nnc(CCCCc2ccc(NC(=O)Cc3cccc(OC(F)(F)F)c3)nn2)s1 [Example 31, N-(2-methylpropyl)-5-[4-(6-{2-[3-(trifluoromethoxy)phenyl]acetamido}pyridazin-3-yl)butyl]-1,3,4-thiadiazole-2-carboxamide] |
| 100 to 500 | < 100 | O=C(Cc1cccc(OC(F)(F)F)c1)Nc1nnc(CCC(F)Cn2cc(C(=O)NCC(F)(F)F)nn2)s1 (centres unmarked) [Example 536, 1-[2-fluoro-4-(5-{2-[3-(trifluoromethoxy)phenyl]acetamido}-1,3,4-thiadiazol-2-yl)butyl]-N-(2,2,2-trifluoroethyl)-1H-1,2,3-triazole-4-carboxamide] |
| 500 to 5000 | 100 to 500 | CNC(=O)c1cn(CCCCc2ccc(NC(=O)CC3CCOCC3)nn2)nn1 [Example 547, N-methyl-1-(4-{6-[2-(oxan-4-yl)acetamido]pyridazin-3-yl}butyl)-1H-1,2,3-triazole-4-carboxamide] |
| < 100 | < 100 | Cc1ccc(CNC(=O)c2cn(CCCCn3cc(NC(=O)Cc4cc(OC(F)(F)F)ccc4F)nn3)nn2)cn1 [Example 383, 1-[4-(4-{2-[2-fluoro-5-(trifluoromethoxy)phenyl]acetamido}-1H-1,2,3-triazol-1-yl)butyl]-N-[(6-methylpyridin-3-yl)methyl]-1H-1,2,3-triazole-4-carboxamide] |
| > 5000 | 500 to 5000 | Cc1ccc(CNC(=O)c2cn(CCCCn3cc(NC(=O)CC4CC4)nn3)nn2)cn1 [Example 300, 1-{4-[4-(2-cyclopropylacetamido)-1H-1,2,3-triazol-1-yl]butyl}-N-[(6-methylpyridin-3-yl)methyl]-1H-1,2,3-triazole-4-carboxamide] |
| 100 to 500 | 100 to 500 | O=C(NCc1cccc(C(F)(F)F)c1)c1cn(CCCCn2cc(C(=O)NCC3CCCCO3)nn2)nn1 (centres unmarked) [Example 121, N-(oxan-2-ylmethyl)-1-{4-[4-({[3-(trifluoromethyl)phenyl]methyl}carbamoyl)-1H-1,2,3-triazol-1-yl]butyl}-1H-1,2,3-triazole-4-carboxamide] |
| 500 to 5000 | 500 to 5000 | C[C@@H](NC(=O)c1cn(CCCCn2cc(C(=O)NCc3cc(C(F)(F)F)ccn3)nn2)nn1)c1ccccc1 [Example 98, 1-[4-(4-{[(1R)-1-phenylethyl]carbamoyl}-1H-1,2,3-triazol-1-yl)butyl]-N-{[4-(trifluoromethyl)pyridin-2-yl]methyl}-1H-1,2,3-triazole-4-carboxamide] |
| < 100 | < 100 | CNC(=O)c1cn(CCCCc2ccc(NC(=O)Cc3cn(-c4cccc(OC(F)(F)F)c4)cn3)nn2)nn1 [Example 604, N-methyl-1-(4-(6-(2-(1-(3-(trifluoromethoxy)phenyl)-1H-imidazol-4-yl)acetamido)pyridazin-3-yl)butyl)-1H-1,2,3-triazole-4-carboxamide] |
| 100 to 500 | 100 to 500 | CNC(=O)c1cn(CCC(F)Cn2cc(C(=O)NCc3cccc(OC(F)(F)F)c3)nn2)nn1 (centres unmarked) [Example 162, 1-{3-fluoro-4-[4-({[3-(trifluoromethoxy)phenyl]methyl}carbamoyl)-1H-1,2,3-triazol-1-yl]butyl}-N-methyl-1H-1,2,3-triazole-4-carboxamide] |
| 100 to 500 | 100 to 500 | NC(=O)c1cn(CCCCc2nnc(NC(=O)Cc3cccc(OC(F)(F)F)c3)s2)nn1 [Example 3, 1-(4-(5-(2-(3-(Trifluoromethoxy)phenyl)acetamido)-1,3,4-thiadiazol-2-yl)butyl)-1H-1,2,3-triazole-4-carboxamide] |
| < 100 | < 100 | CNC(=O)c1cn(CC(F)CCc2nnc(NC(=O)Cc3cc(OC(F)(F)F)ccc3F)s2)nn1 (centres unmarked) [Example 518, 1-[2-fluoro-4-(5-{2-[2-fluoro-5-(trifluoromethoxy)phenyl]acetamido}-1,3,4-thiadiazol-2-yl)butyl]-N-methyl-1H-1,2,3-triazole-4-carboxamide] |
| < 100 | < 100 | O=C(NCc1ccc(C(F)(F)F)nc1)c1cn(CCC(F)Cn2cc(C(=O)NCc3cccc(OC(F)(F)F)c3)nn2)nn1 (centres unmarked) [Example 437, 1-{3-fluoro-4-[4-({[3-(trifluoromethoxy)phenyl]methyl}carbamoyl)-1H-1,2,3-triazol-1-yl]butyl}-N-{[6-(trifluoromethyl)pyridin-3-yl]methyl}-1H-1,2,3-triazole-4-carboxamide] |
| < 100 | < 100 | Cc1ccc(CNC(=O)c2cn(CCCCn3cc(NC(=O)CC4CCCCC4)nn3)nn2)cn1 [Example 318, 1-{4-[4-(2-cyclohexylacetamido)-1H-1,2,3-triazol-1-yl]butyl}-N-[(6-methylpyridin-3-yl)methyl]-1H-1,2,3-triazole-4-carboxamide] |
| < 100 | < 100 | O=C(Cc1cc(OC(F)(F)F)ccc1F)Nc1cn(CCCCn2cc(C(=O)NCc3cc(OC(F)(F)F)ccc3F)nn2)nn1 [Example 381, 1-[4-(4-{2-[2-fluoro-5-(trifluoromethoxy)phenyl]acetamido}-1H-1,2,3-triazol-1-yl)butyl]-N-{[2-fluoro-5-(trifluoromethoxy)phenyl]methyl}-1H-1,2,3-triazole-4-carboxamide] |
| < 100 | < 100 | CC1(C)Oc2ccc(CNC(=O)c3cn(CCCCn4cc(C(=O)NCc5cc(C(F)(F)F)ccn5)nn4)nn3)cc2O1 [Example 137, 1-[4-(4-{[(2,2-dimethyl-2H-1,3-benzodioxol-5-yl)methyl]carbamoyl}-1H-1,2,3-triazol-1-yl)butyl]-N-{[4-(trifluoromethyl)pyridin-2-yl]methyl}-1H-1,2,3-triazole-4-carboxamide] |
| < 100 | < 100 | O=C(NCc1cccc(OC(F)(F)F)c1)c1cn(CCCCn2cc(C(=O)NCc3ccnc(C(F)(F)F)c3)nn2)nn1 [Example 122, 1-{4-[4-({[3-(trifluoromethoxy)phenyl]methyl}carbamoyl)-1H-1,2,3-triazol-1-yl]butyl}-N-{[2-(trifluoromethyl)pyridin-4-yl]methyl}-1H-1,2,3-triazole-4-carboxamide] |
